Counter-ions that a name gives are not always drawn. ± gives the uncertainty stated by the source.
How the values were obtained:
[1] = tested on: THP-1; test: AC50 of IL-8 secretion induction; higher = less potent; conditions: exposure time: 18 h
[2] = tested on: lysine peptide Ac-RFAAKAA-COOH; test: efficacy of lysine peptide change (negative = depletion) (% activity); higher = less depletion; conditions: incubation time: 24 h
[3] = tested on: KeratinoSens (HaCaT ARE-luciferase) cells; test: efficacy of ARE luciferase induction relative to DMSO (% activity over DMSO); higher = stronger induction; conditions: exposure time: 24 h
[4] = tested on: KeratinoSens (HaCaT ARE-luciferase) cells; test: AC50 of Nrf2/ARE luciferase induction; higher = less potent; conditions: exposure time: 24 h
[5] = tested on: cysteine peptide Ac-RFAACAA-COOH; test: AC50 of cysteine peptide concentration-response (direction given by sign of efficacy); higher = less potent; conditions: incubation time: 24 h
[6] = tested on: cysteine peptide Ac-RFAACAA-COOH; test: efficacy of cysteine peptide change (negative = depletion) (% activity); higher = less depletion; conditions: incubation time: 24 h
[7] = tested on: THP-1; test: efficacy of IL-8 induction relative to DMSO (% activity); higher = stronger induction; conditions: exposure time: 18 h
[8] = tested on: KeratinoSens (HaCaT ARE-luciferase) cells; test: cytotoxicity AC50 (CellTiter-Fluor viability); higher = less cytotoxic; conditions: exposure time: 24 h

| SMILES | AC50 of IL-8 secretion induction [1] [µM] | efficacy of lysine peptide change [2] | efficacy of ARE luciferase induction [3] | AC50 of Nrf2/ARE luciferase induction [4] [µM] | AC50 [5] [µM] | efficacy of cysteine peptide change [6] | efficacy of IL-8 induction [7] | cytotoxicity AC50 [8] [µM] |
| --- | --- | --- | --- | --- | --- | --- | --- | --- |
| Sc1nc2ccccc2s1 [2-Mercaptobenzothiazole] | 28.3 | 40.3 ± 17 | 87.1 ± 23 | 20.7 | 32.9 ± 2.2 | -86.4 ± 10 | 21.3 ± 41 | – |
| Cn1sccc1=O [2-Methyl-4-isothiazolin-3-one hydrochloride] | 35.9 | -0.97 ± 8.8 | 118 ± 32 | 13.7 | 2.42 ± 0.16 | -98.5 ± 3.1 | 50.4 ± 5.3 | 25.2 ± 2.9 |
| c1csc(SSc2cccs2)c1 [2-Thienyl disulfide] | 82.7 | -11.6 ± 10 | 126 ± 80 | 33.5 | 1.04 ± 0.07 | -94.7 ± 2.8 | 81.3 ± 8.7 | 41.4 ± 2.8 |
| c1cc(N(CC2CO2)CC2CO2)ccc1Cc1ccc(N(CC2CO2)CC2CO2)cc1 (stereo not given) [4,4'-Methylenebis(N,N-diglycidylaniline)] | 37.1 | – | 57 ± 38 | 15.8 | – | – | 103 ± 16 | 35.5 |
| c1cc(N(CC2CO2)CC2CO2)ccc1OCC1CO1 (stereo not given) [4-(Diglycidylamino)phenyl glycidyl ether] | 76.9 | 41.8 ± 1.5 | 103 ± 58 | 32.9 | 20.3 ± 16 | -36.5 ± 12 | 62.3 ± 18 | 63.9 ± 12 |
| Nc1ncn([C@@H]2O[C@H](CO)[C@@H](O)[C@H]2O)c(=O)n1 [5-Azacytidine] | 41.6 | 6.9 ± 7.1 | 275 ± 140 | 18.9 | – | 4.3 ± 7.4 | 55 ± 5.8 | 17.8 ± 6.3 |
| CN(C)c1ccc(N(C)C)cc1 [*N,N,N',N'-Tetramethyl-p-phenylenediamine] | 76.5 | -28.7 ± 13 | 98.6 ± 34 | 20.9 | 3.26 ± 0.91 | -93.1 ± 3.4 | 130 ± 7.7 | 57 ± 12 |
| S=C=NCc1ccccc1 [BENZYL ISOTHIOCYANATE] | 11.4 | 19.8 ± 9.3 | 278 ± 170 | 24.8 | 34.2 ± 2.2 | -57.9 ± 6.4 | 40.8 ± 25 | – |
| Oc1c(I)cc(Cl)c2cccnc12 [Clioquinol] | 21.6 | -8.28 ± 7.3 | 87.3 ± 32 | 6.33 | 1.52 ± 0.89 | -68.8 ± 8.1 | 125 ± 14 | 10.4 ± 1.3 |
| COc1cc(/C=C2\CCC/C(=C\c3ccc(O)c(OC)c3)C2=O)ccc1O [Cyclovalone] | 40 | 15.9 ± 15 | 242 ± 83 | 15.8 | 0.87 ± 0.35 | -50.1 ± 12 | 44.5 ± 6.9 | 22.5 ± 2.6 |
| O=C1c2ccccc2C(=O)C1c1ccc2ccccc2n1 [D & C Yellow II] | 38.4 | -13.8 ± 13 | 68.8 ± 34 | 11.6 | – | -22.9 ± 5.9 | 71.4 ± 9.3 | 28.2 |
| CCS(=O)(=O)CCSP(=O)(OC)OC [Demeton-S-methylsulphon] | 30.7 | -8 ± 20 | 28.1 ± 59 | 19 | – | -43.5 ± 12 | 108 ± 5.1 | 22.5 ± 2.6 |
| CCC1OCC(COc2ccc(Oc3ccccc3)cc2)O1 (stereo not given) [Diofenolan] | 34.2 | 0.82 ± 8.5 | 138 ± 84 | 13.7 | – | 8.44 ± 17 | 113 ± 5.8 | 24.4 ± 4.2 |
| CC(C)=CCC1C(=O)N(c2ccccc2)N(c2ccccc2)C1=O [Feprazone] | 85.9 | 0 | 281 ± 320 | 46 | – | -88.7 ± 16 | 60.5 ± 9.2 | 40 ± 4.6 |
| c1coc(-c2nc3ccccc3[nH]2)c1 [Fuberidazole] | 48.3 | -20.8 ± 15 | 96.2 ± 26 | 32 | 12.3 ± 4.7 | -100 ± 9.1 | 78.3 ± 0.93 | 38.7 ± 6.6 |
| CC(O)C#CC(C)O (stereo not given) [Hex-3-yne-2,5-diol] | 41.4 | -5.13 ± 15 | -35.2 ± 7.1 | – | 4.16 ± 0.53 | -101 ± 4.2 | 62.2 ± 17 | 32.9 ± 2.2 |
| CN(C)c1ccc(C(=C2C=CC(=[N+](C)C)C=C2)c2ccccc2)cc1 [Malachite green oxalate*] | 15.3 | 36.4 ± 15 | -37.3 ± 7.1 | – | 4.18 ± 2 | -94.9 ± 1.7 | 47.7 ± 7.8 | 8.91 |
| CC(C)CC(C)Nc1ccc(Nc2ccccc2)cc1 (stereo not given) [N-(1,3-Dimethylbutyl)-N'-phenyl-p-phenylenediamine] | 32.9 | 2.97 ± 5.1 | 148 ± 100 | 26.4 | 0.88 ± 0.99 | -77.3 ± 10 | 29.6 ± 1.7 | 38.5 ± 5.3 |
| N=C(N)NN=C(/C=C/c1ccc([N+](=O)[O-])o1)/C=C/c1ccc([N+](=O)[O-])o1 [Nitrovin] | 11.6 | -31.7 ± 10 | 46.8 ± 140 | – | 5.39 ± 1.6 | -105 ± 8.6 | 63.3 ± 30 | 6.97 ± 1.7 |
| C[C@@H]1O[C@@H](O[C@H]2C[C@@H](O)[C@]3(CO)[C@H]4[C@H](O)C[C@]5(C)[C@@H](C6=CC(=O)OC6)CC[C@]5(O)[C@@H]4CC[C@]3(O)C2)[C@H](O)[C@H](O)[C@H]1O [Ouabain] | 2.99 | 6.65 ± 12 | 220 ± 65 | 0.96 | – | 3.17 ± 11 | 35.4 ± 9.9 | 1.58 |
| CCCCc1ccc2[nH]c(NC(=O)OC)nc2c1 [Parbendazole*] | 38.4 | 56 ± 8.1 | 66.8 ± 26 | 21.1 | – | -4.47 ± 11 | 77.1 ± 5.2 | 5.79 ± 1.6 |
| Nc1ccc2cc3ccc(N)cc3nc2c1 [Proflavin hemisulfate#] | 35.5 | 115 ± 4.9 | 390 ± 270 | 7.94 | 11.9 ± 20 | 88.8 ± 300 | 68 ± 3.1 | – |
| CC(C)OC(=S)S [Proxan-sodium] | 35.9 | 10.8 ± 20 | 59.5 ± 100 | – | 73.6 ± 37 | -94.2 ± 20 | 59.9 ± 7.8 | 37.3 ± 6.7 |
| CC(C)CP(=S)(S)CC(C)C [Sodium bis(2-methylpropyl)phosphinodithioate] | 38.4 | 108 ± 18 | 168 ± 27 | – | 76.5 ± 25 | -92.6 ± 1.4 | 82.4 ± 10 | 21.1 ± 9.9 |
| O=c1[nH]sc2cc(Cl)ccc12 [Ticlatone] | 21.6 | -0.22 ± 12 | 55.4 ± 80 | – | 0.65 ± 0.18 | -90.5 ± 5.6 | 92.2 ± 7.7 | 13.2 ± 2.4 |
| O=c1n(CC2CO2)c(=O)n(CC2CO2)c(=O)n1CC1CO1 (stereo not given) [Triglycidyl isocyanurate] | 36.9 | 35 ± 20 | 90.3 ± 20 | 14.1 | – | -3.96 ± 6.9 | 157 ± 24 | 28.3 ± 3.2 |
| CC(C)(C)c1cc(O)ccc1O [tert-Butylhydroquinone] | 39.8 | -30.8 ± 9.1 | 293 ± 55 | 33 | 34.8 ± 13 | -112 ± 5.2 | 114 ± 90 | – |
